Tests used:
[1] = 100 kPa, Liquid; for speed of sound: Frequency=3 MHz, Sing-around technique in a fixed-path interferometer; for mass density: Vibrating tube method
[2] = refractive index (Na D-line) (dimensionless); conditions: 100 kPa, Liquid, Standard Abbe refractometry
[3] = xn = mol fraction of the nth substance listed; conditions: 100 kPa, Liquid, x1 = 1; for speed of sound: Frequency=3 MHz, Sing-around technique in a fixed-path interferometer; for mass density: Vibrating tube method
[4] = refractive index (Na D-line) (dimensionless); xn = mol fraction of the nth substance listed; conditions: 100 kPa, Liquid, Standard Abbe refractometry, x1 = 1

Nc1ccccc1 [aniline]
Conditions | mass density, [1] [kg/m3] | refractive index, [2] | speed of sound, [1] [m/s]
298.15 K | 1017.1 | 1.5826 | 1636.8
303.15 K | 1012.7 | 1.5793 | 1617.5
308.15 K | 1008.4 | 1.576 | 1598.3
313.15 K | 1004.1 | 1.5727 | 1579.1
318.15 K | 999.7 | 1.5694 | 1560
323.15 K | 995.4 | 1.5661 | 1540.9

O=Cc1ccccc1 [benzaldehyde]
Conditions | mass density, [1] [kg/m3] | refractive index, [2] | speed of sound, [1] [m/s]
298.15 K | 1041 | 1.541 | 1457.3
303.15 K | 1036.5 | 1.5383 | 1438.9
308.15 K | 1032 | 1.5357 | 1420.6
313.15 K | 1027.5 | 1.5332 | 1402.4
318.15 K | 1023 | 1.5307 | 1384.4
323.15 K | 1018.4 | 1.5282 | 1366.4

N#Cc1ccccc1 [benzonitrile]
Conditions | mass density, [1] [kg/m3] | refractive index, [2] | speed of sound, [1] [m/s]
298.15 K | 1000.6 | 1.526 | 1415.6
303.15 K | 995.9 | 1.5235 | 1398.1
308.15 K | 991.4 | 1.5209 | 1380.8
313.15 K | 986.9 | 1.5184 | 1363.6
318.15 K | 982.5 | 1.5158 | 1346.5
323.15 K | 977.9 | 1.5133 | 1329.5

CCOC(=O)OCC [diethyl carbonate]
Conditions | mass density, [1] [kg/m3] | refractive index, [2] | speed of sound, [1] [m/s]
298.15 K | 969.1 | 1.3825 | 1177.5
303.15 K | 963.5 | 1.3802 | 1156.9
308.15 K | 957.8 | 1.3779 | 1136.6
313.15 K | 952.1 | 1.3756 | 1116.5
318.15 K | 946.4 | 1.3733 | 1096.5
323.15 K | 940.7 | 1.371 | 1076.7

CCOC(=O)OCC [diethyl carbonate] + N#Cc1ccccc1
Conditions | mass density, [3] [kg/m3] | refractive index, [4] | speed of sound, [3] [m/s]
298.15 K | 969.1 | 1.3825 | 1177.5
303.15 K | 963.5 | 1.3802 | 1156.9
308.15 K | 957.8 | 1.3779 | 1136.6
313.15 K | 952.1 | 1.3756 | 1116.5
318.15 K | 946.4 | 1.3733 | 1096.5
323.15 K | 940.7 | 1.371 | 1076.7

CCOC(=O)OCC [diethyl carbonate] + Nc1ccccc1
Conditions | mass density, [3] [kg/m3] | refractive index, [4] | speed of sound, [3] [m/s]
298.15 K | 969.1 | 1.3825 | 1177.5
303.15 K | 963.5 | 1.3802 | 1156.9
308.15 K | 957.8 | 1.3779 | 1136.6
313.15 K | 952.1 | 1.3756 | 1116.5
318.15 K | 946.4 | 1.3733 | 1096.5
323.15 K | 940.7 | 1.371 | 1076.7

CCOC(=O)OCC [diethyl carbonate] + O=Cc1ccccc1
Conditions | mass density, [3] [kg/m3] | refractive index, [4] | speed of sound, [3] [m/s]
298.15 K | 969.1 | 1.3825 | 1177.5
303.15 K | 963.5 | 1.3802 | 1156.9
308.15 K | 957.8 | 1.3779 | 1136.6
313.15 K | 952.1 | 1.3756 | 1116.5
318.15 K | 946.4 | 1.3733 | 1096.5
323.15 K | 940.7 | 1.371 | 1076.7
